Results published in patent publication US4250259A, “Microbiological production of ketones from C3 -C6 secondary alcohols” (priority 1979, dated 1981).
Like-named read-outs stand apart in the source and are kept apart here.

Key:
[1] = tested on: cell-free particulate fractions of methane-grown methylotrophs; experiment: inhibitors and electron donors of n-alkane conversion to sec. alcohols by cell-free particulate fractions; format: biochemical
Text: The conditions for preparing the cell suspensions or the cell-free particulate fractions from methane-grown methylotroph microorganisms is the same as described above.

[2] = tested on: purified secondary alcohol dehydrogenase; experiment: substrate specificity, electron acceptor and stoichiometry of purified yeast SADH; settings: for oxidation by the purified yeast secondary alcohol dehydrogenase: examined spectrophotometrically
[3] = tested on: cell-free SADH system; experiment: cofactor requirement of the cell-free SADH systems; format: biochemical; settings: cell-free systems tested
Experimental: To prepare the cell-free secondary alcohol dehydrogenase (SADH) system, the washed cells were disrupted with a Wave Energy Ultrasonic Oscillator, Model W201 (Wave Energy System, Inc., Newtown, Pa.) and centrifuged at 20,000×g. for 30 minutes. […] The enzyme activity was measured with a fluorescence spectrophotometer (Perkin Elmer, Model MPF 44A) by following the formation of reduced NAD (EX 340 nm, Em 460 nm). The formation of reduced NAD was also followed with an absorption spectrophotometer at 340 nm. The assay system (3 ml.) contained: potassium phosphate buffer pH 7.0; 150 μmol.; NAD 1 μmol.; a given amount of enzyme preparation; and secondary alcohol 10 μmol. The reaction was started by the addition of substrate. One unit of enzyme activity represents the reduction of one μmole NAD per minute. Protein concentrations were determined by the Lowry method (J. Biol. Chem., 193: 255-275 (1951)).

[4] = tested on: purified secondary alcohol dehydrogenase (SADH); experiment: inhibition of purified SADH by metal-chelating agents, thioreagents, metals; format: biochemical, Pseudomonas sp. ATCC 21439
Experimental: Secondary alcohol dehydrogenase (SADH) from an obligate methanol utilizer, Pseudomonas sp. ATCC 21439 was purified as follows. […] 0.05 M sodium phosphate buffer, pH 7.0 with 0.5 mM dithiothretol (buffer A) and were disrupted sonically (5×1 min.). The crude extract was separated by centrifugation. The crude extract was heat-treated at 50° C. in a water bath for 10 minutes. The resulting precipitate was removed by centrifugation. To the supernatant solution, 25 ml of protamine sulfate solution (2% solution in 0.1 M Tris base) was added dropwise with continuous stirring. After standing for 30 minutes, the extract was centrifuged. The supernatant solution was fractionated with solid ammonium sulfate. […] This DEAE-cellulose eluate was concentrated by ammonium sulfate fractionation. Material precipitating between 30 and 50% ammonium sulfate saturation was collected by centrifugation and dialyzed overnight against A. This fraction was further washed and filtered through an Amicon unit with XM 50 membrane. The concentrated fraction (6 ml) inside the Amicon unit was applied to an Affi-Gel Blue column (0.8 cm×18 cm) which had been equilibrated with buffer A for affinity chromatography. The column was washed overnight with buffer A (0.18 ml./min.) and then was eluted with buffer A containing 5 mM NAD. Each 1 ml. fraction was collected.
The purified secondary alcohol dehydrogenase enzyme (SADH) may be used directly for converting C3 -C6 secondary alcohols to the corresponding methyl ketones by the procedures described above; however, a source of NAD^+ must be added to the reaction medium. One can determine the NAD-linked secondary alcohol dehydrogenase activity with a fluorescence spectrophotometer (Perkin Elmer, Model MPF 44A) by following the formation of reduced NAD (Ex 340 nm, Em 460 nm). The assay system (3 ml.) will typically contain: sodium phosphate buffer pH 7.0, 150 μmol; NAD 1.0 μmol; a given amount of enzyme preparation; and 20 μmol secondary alcohol. The reaction is started by the addition of secondary alcohol. One unit of SADH enzyme activity represents the reduction of one nmole NAD per minute.
The effect of metal-chelating agents and thioreagents on the activity of the purified SADH enzyme were studied. […] The possibility of ethanol or n-propanol as an inhibitor was studied.

[5] = tested on: cell suspensions of C1-utilizers; experiment: studies on production of 2-butanone from 2-butanol by cell suspensions of the strains tested; format: cell-based; settings: for inhibition of production of 2-butanone from 2-butanol by cell suspensions: strains tested
Text: The following summarizes tests conducted on the optimal conditions for the production of methyl ketones from C3 -C6 sec. alcohols.
The substrate specificity for the oxidation of C3 -C6 secondary alcohols by the strains of C1 -utilizers was studied.

[6] = tested on: purified secondary alcohol dehydrogenase (SADH); experiment: substrate specificity and Michaelis constants of purified SADH; format: biochemical, Pseudomonas sp. ATCC 21439
[7] = tested on: Methylococcus capsulatus CRL M1 NRRL B-11,219; experiment: conversion of n-alkanes to oxidation products by cell suspensions (Table XVIII); format: cell-based; settings: methane-grown cell suspension, pH 7.0
Experimental: (§1) ^(a) Cell-suspensions of methanegrown methylotroph microorganisms
(§2) indicated in 0.15 M phosphate buffer, pH 7.0 incubated in the alkanes as
(§3) indicated at 3° C. The oxidation products were determined by g.l.c

[8] = tested on: Methylosinus trichosporium OB3b NRRL B-11,196; experiment: as above; format: cell-based; settings: methane-grown cell suspension, pH 7.0
Experimental: as §1, §2, §3

[9] = each inhibitor at a final concentration of 1 mM, measured spectrofluorometrically

Question: With `Oc1cccc2cccnc12` [8-hydroxyquinoline] as the compound, how does the “inhibition of conversion of n-alkanes to sec. alcohols (words)” value (“inhibition of conversion of n-alkanes” for short) [1] read?
Answer: inhibited

Question: Which results are given for `C[n+]1c2ccccc2nc2ccccc21` [phenazine methosulfate, reference compound]?
Answer: ability to act as electron acceptor/carrier for the purified enzyme [2]: could not act as electron carrier; effectiveness as cofactor for oxidation of 2-butanol / C3-C6 secondary alcohols [3]: not effective

Question: For `NC(=O)c1ccc[n+]([C@@H]2O[C@H](COP(=O)(O)OP(=O)(O)OC[C@H]3O[C@@H](n4cnc5c(N)ncnc54)[C@H](OP(=O)(O)O)[C@@H]3O)[C@@H](O)[C@H]2O)c1` [NADP, reference compound], which “ability to act as electron acceptor/carrier for the purified enzyme” value [2] is on record?
Answer: could not act as electron carrier

Question: What about the “effectiveness as cofactor for oxidation of 2-butanol / C3-C6 secondary alcohols” value [3] of the same compound?
Answer: not effective

Question: `NC(=O)C1=CN([C@@H]2O[C@H](COP(=O)(O)OP(=O)(O)OC[C@H]3O[C@@H](n4cnc5c(N)ncnc54)[C@H](OP(=O)(O)O)[C@@H]3O)[C@@H](O)[C@H]2O)C=CC1` [NADPH, reduced nicotinamide adenine dinucleotide phosphate] was tested. Which “use as electron donor for hydroxylation of n-alkanes” value [1] did it give?
Answer: could also be utilized as an electron donor

Question: `[N-]=[N+]=[N-]` [Sodium azide] was tested. Which “% inhibition of SADH activity” value [4, 9] did it give?
Answer: 10%

Question: With `O=C1C(Cl)=CC(=Nc2ccc(O)cc2)C=C1Cl` [dichlorophenol indophenol, 2,6-dichlorophenol indophenol, reference compound] as the compound, how does the “ability to act as electron acceptor/carrier for the purified enzyme” value [2] read?
Answer: could not act as electron carrier

Question: And the “effectiveness as cofactor for oxidation of 2-butanol / C3-C6 secondary alcohols” value [3]?
Answer: not effective

Question: Which “% inhibition of SADH activity” value [4, 9] does the source give for `[Co+2]` [Co^++] here?
Answer: 0%

Question: Which “oxidation by the purified yeast secondary alcohol dehydrogenase” value [2] does the source give for `CO` [methanol] here?
Answer: not oxidized

Question: For `NNC(N)=S` [thiosemicarbazide], which “inhibition of conversion of n-alkanes” value [1] is on record?
Answer: inhibited

Question: Which results are given for `c1ccc(-c2ccccn2)nc1` [α,α-bipyridyl]?
Answer: inhibition of conversion of n-alkanes to sec. alcohols (words) [1]: inhibited; % inhibition of SADH activity [4, 9]: 70%; inhibition of production of 2-butanone from 2-butanol by cell suspensions [5]: inhibited

Question: For `CCO` [ethanol], which “oxidation by the purified yeast secondary alcohol dehydrogenase” value [2] is on record?
Answer: not oxidized

Question: What about the “inhibition of SADH activity” value [4] of the same compound?
Answer: did not inhibit

Question: Which “oxidation by purified SADH” value [6] does the source give for `CC(C)CO` [isobutanol] here?
Answer: not oxidized

Question: For `CCC(O)CO` (stereo not shown) [butane 1,2-diol], which “oxidation by the purified yeast secondary alcohol dehydrogenase” value [2] is on record?
Answer: not oxidized

Question: What about the “oxidation by purified SADH” value [6] of the same compound?
Answer: not oxidized

Question: For `C=CC` [propylene], which “inhibition of conversion of n-alkanes” value [1] is on record?
Answer: inhibited

Question: What about the “inhibition of conversion of n-alkanes” value ([1]; listed as Propylene) of the same compound?
Answer: inhibit

Question: How did the “oxidation by purified SADH” value [6] turn out when `O=C(O)CCC(=O)O` [succinic acid] was run?
Answer: not oxidized

Question: Which “oxidation by purified SADH” value [6] does the source give for `CC(O)C(C)O` (stereo not shown) [butane 2,3-diol] here?
Answer: lower rate

Question: `O=C(O)c1cc(SSc2ccc([N+](=O)[O-])c(C(=O)O)c2)ccc1[N+](=O)[O-]` [5,5'-dithiobis(2-nitrobenzoic acid)] was tested. Which “inhibition of SADH activity” value [4] did it give?
Answer: inhibited

Question: What about the “% inhibition of SADH activity” value [4, 9] of the same compound?
Answer: 100%

Question: Which “oxidation by purified SADH” value [6] does the source give for `C=O` [formaldehyde] here?
Answer: not oxidized

Question: With `CCN1C(=O)C=CC1=O` [N-ethylmalemide, N-ethylmaleimide] as the compound, how does the “inhibition of SADH activity” value [4] read?
Answer: not inhibited

Question: And the “% inhibition of SADH activity” value [4, 9]?
Answer: 6%

Question: Which results are given for `CC(O)CCO` (stereo not shown) [butane 1,3-diol]?
Answer: oxidation by the purified yeast secondary alcohol dehydrogenase [2]: not oxidized; oxidation by purified SADH [6]: lower rate

Question: With `CCCCO` [butan-1-ol] as the compound, how does the “oxidation by the purified yeast secondary alcohol dehydrogenase” value [2] read?
Answer: not oxidized

Question: For `[Ni+2]` [nickel], which “% inhibition of SADH activity” value [4, 9] is on record?
Answer: 20%

Question: With `NC(=O)C1=CN([C@@H]2O[C@H](COP(=O)(O)OP(=O)(O)OC[C@H]3O[C@@H](n4cnc5c(N)ncnc54)[C@H](O)[C@@H]3O)[C@@H](O)[C@H]2O)C=CC1` [NADH, reduced nicotinamide adenine dinucleotide] as the compound, how does the “use as electron donor for hydroxylation of n-alkanes” value [1] read?
Answer: requires

Question: How did the “oxidation by the purified yeast secondary alcohol dehydrogenase” value [2] turn out when `CCCCCO` [pentan-1-ol] was run?
Answer: not oxidized

Question: `O=C(O)CN(CCN(CC(=O)O)CC(=O)O)CC(=O)O` [EDTA] was tested. Which “% inhibition of SADH activity” value [4] did it give?
Answer: 63%

Question: How did the “oxidation by purified SADH” value [6] turn out when `CC=O` [acetaldehyde] was run?
Answer: lower rate

Question: What does the source list for `CC` [Ethane]?
Answer: Conversion Rate, product Ethanol [7]: 2.0 μmoles/hr./mg./protein; Conversion Rate, product Ethanol [8]: 1.3 μmoles/hr./mg./protein

Question: What does the source list for `[Zn+2]` [Zn^++]?
Answer: stimulation of SADH activity ([4]; addition of exogenous zinc): did not stimulate; % inhibition of SADH activity [4, 9]: 0%

Question: Which results are given for `NC(N)=S` [Thiourea]?
Answer: inhibition of conversion of n-alkanes to sec. alcohols (words) [1]: inhibited; inhibition of SADH activity [4]: not inhibited; % inhibition of SADH activity [4, 9]: 0%; inhibition of production of 2-butanone from 2-butanol by cell suspensions [5]: not inhibited

Question: With `CCCCCCC(C)O` (stereo not shown) [2-octanol] as the compound, how does the “oxidation by the purified yeast secondary alcohol dehydrogenase” value [2] read?
Answer: not oxidized

Question: Which “effectiveness as cofactor for oxidation of 2-butanol / C3-C6 secondary alcohols” value [3] does the source give for `NC(=O)C1=CN([C@@H]2O[C@H](COP(=O)(O)OP(=O)(O)OC[C@H]3O[C@@H](n4cnc5c(N)ncnc54)[C@H](OP(=O)(O)O)[C@@H]3O)[C@@H](O)[C@H]2O)C=CC1` [NAD(P)H] here?
Answer: not effective

Question: For `[Fe+3]` [ferric], which “% inhibition of SADH activity” value [4, 9] is on record?
Answer: 35%

Question: For `CC(O)CO` (stereo not shown) [1,2-propandiol], which “oxidation by the purified yeast secondary alcohol dehydrogenase” value [2] is on record?
Answer: not oxidized

Question: Which “ability to act as electron acceptor/carrier for the purified enzyme” value [2] does the source give for cytochrome c [reference compound] here?
Answer: could not act as electron carrier

Question: `[Mn+2]` [Mn^++] was tested. Which “% inhibition of SADH activity” value [4, 9] did it give?
Answer: 0%

Question: For `O=C(O)CI` [iodoacetic acid], which “% inhibition of SADH activity” value [4] is on record?
Answer: 0%

Question: What about the “inhibition of SADH activity” value [4] of the same compound?
Answer: not inhibited

Question: `C` [Methane] was tested. Which “Conversion Rate, product Methanol” value ([7]; […] phosphate buffer) did it give?
Answer: 2.5 μmoles/hr./mg./protein

Question: And the “Conversion Rate, product Methanol” value ([8]; […] phosphate buffer)?
Answer: 1.5 μmoles/hr./mg./protein

Question: For `[Mg+2]` [Mg^++], which “% inhibition of SADH activity” value [4, 9] is on record?
Answer: 0%

Question: With `CCCCCC(C)O` (stereo not shown) [2-heptanol] as the compound, how does the “oxidation by the purified yeast secondary alcohol dehydrogenase” value [2] read?
Answer: not oxidized

Question: And the “rate of oxidation of secondary alcohols by strains of C1-utilizers” value ([5]; cell suspensions)?
Answer: much slower rate

Question: For `CCCO` [n-propanol], which “oxidation by the purified yeast secondary alcohol dehydrogenase” value [2] is on record?
Answer: not oxidized

Question: And the “inhibition of SADH activity” value [4]?
Answer: did not inhibit

Question: Which “oxidation by purified SADH” value [6] does the source give for `OC1CCCCC1` [cyclohexanol] here?
Answer: lower rate

Question: What does the source list for `CCC=O` [ropanal]?
Answer: oxidation by purified SADH [6]: lower rate; relative percent rate of oxidation by SADH ([6]; 2-butanol = 100%): 2%

Question: Which “oxidation by purified SADH” value [6] does the source give for `O=Cc1ccccc1` [benzaldehyde] here?
Answer: not oxidized

Question: For `[Cu+2]` [cupric], which “% inhibition of SADH activity” value [4, 9] is on record?
Answer: 25%

Question: Which “% inhibition of SADH activity” value [4, 9] does the source give for `[Fe+2]` [ferrous] here?
Answer: 50%

Question: With `Oc1ccccc1` [phenol] as the compound, how does the “oxidation by purified SADH” value [6] read?
Answer: not oxidized
